Read-outs that look alike come from different tables or passages of the source.

The values below come from patent publication US10246455B2, “Histone deacetylase inhibitors” (Taipei Medical University, priority 2014, dated 2019).

Series [1] concerns LNCaP104-R1 prostate cancer cells. The series can be described thus: Two dimensional cell growth inhibitory assay (MTT): LNCaP104-R1. Conditions: Homo sapiens, 72 h, read-out: MTT IC50 ± SD.
Protocol: (§5) For the two dimensional assay, cancel cells in the logarithmic phase were cultured in complete medium in 96-well plates at 37° C. with 5% CO2 for overnight incubation, and treated with various concentrations of test compounds for three generative times. Cells were then incubated with a serum free medium containing 3-(4,5-dimethylthiazol-2-yl)-2,5-diphenyltetrazolium bromide (MTT) at a final concentration of 0.5 mg/mM for four hours. MTT was converted to formazan by metabolically viable cells. Formazan was then solublized in 50% DMF solution containing 20% SDS at 37° C. overnight. Absorbance was measured at 570 nm using a spectramax M5 microplate reader (Molecular Devices, UK).
Series [2] concerns PC3 (prostate carcinoma). Put plainly: IC50 in human cancer cell lines (inhibiting HDAC): PC3.
Series [3] concerns LNCaP104-S prostate cancer cells. The series can be described thus: Three dimensional cell growth inhibitory assay (cellular spheres, MTT): LNCaP104-S. The class given is cell-based. Conditions: Homo sapiens; 3D cellular sphere culture, LNCaP104-S (androgen-dependent), 72 hours; read-out: MTT IC50 ± SD. As for the experimental part: (§1) For the three dimensional assay, cells in the logarithmic phase were cultured in 50% Matrigel-containing complete medium in 96-well plates at 37° C. with 5% CO2 for five days incubation, and treated with appropriate concentrations of test compounds for three generative times. Images of spheroids were taken under a microscope, and spheroid cell survival was determined by MTT assays.
(§2) The cells (in the 2D culture) and the cellular spheres (in the 3D culture) were treated with test compounds for 72 hours, and then subjected to the MTT colorimetric assay. Each value represents the mean of three independent experiments. Cellular spheres formed in semi-solid and drug effect on cellular spheres were examined using phase-contrast light microscopy.

The test system of series [4] is LNCaP104-R2 prostate cancer cells. Put plainly: Two dimensional cell growth inhibitory assay (MTT): LNCaP104-R2. Particulars: Homo sapiens, 72 h, read-out: MTT IC50 ± SD.
Protocol: as §5
The test system of series [5] is LNCaP104-R1 prostate cancer cells. The series can be described thus: Three dimensional cell growth inhibitory assay (cellular spheres, MTT): LNCaP104-R1. Conditions: Homo sapiens; 3D cellular sphere culture, LNCaP104-R1 (androgen-independent), 72 hours; read-out: MTT IC50 ± SD. The class given is cell-based. On the procedure: as §1, §2
Series [6] has as its system PC3 prostate cancer cells. Put plainly: Two dimensional cell growth inhibitory assay (MTT): PC3. Particulars: Homo sapiens.
Protocol: as §5
Series [7] concerns human PC3 prostate cancer cells xenograft. Put plainly: In vivo antitumor activity assay, PC3 xenograft. The source says: The antitumor effect of the two test compounds were examined in mice xenografted with human PC3 prostate cancer cells or HCT116 colorectal cells.
Five million PC3 cells were subcutaneously inoculated into specific pathogen-free male athymic mice (strain BALB/cAnN.Cg-Foxn1nu/CrlNarl) from the National Laboratory Animal Center, Taiwan. Mice were subsequently fed under specific pathogen-free conditions and provided with sterile water and food. When the tumor volume reached 150 to 200 mm^3, mice were assigned to groups randomly and treated with vehicle control or Compound 7 or 5b at 25/50/100 mg/kg. The compound was administered once a day, 5 days/week for 2 weeks (n=6) by oral administration. Tumor volume and body weight change were measured twice a week. At the end of the experiments (day 25 after first dosing), animals were euthanized in a CO2-containing chamber, and the tumors were collected and fixed in formaldehyde. The terminal deoxynucleotidyl transferase-mediated dUTP nick end labeling assay (TUNEL) was conducted for apoptosis detection. Tumor tissue sections were analyzed using a FITC In Situ Cell death detection kit (Roche) and fluorescence microscopy. Tissue treated with DNase was used as the positive control. Green fluorescence labeled nucleus indicates the induction of DNA fragmentation.

The test system of series [8] is HONE-1 (nasopharyngeal carcinoma). Put plainly: IC50 in human cancer cell lines (inhibiting HDAC): HONE-1.
Series [9] concerns PC3 prostate cancer cells. Put plainly: Three dimensional cell growth inhibitory assay (cellular spheres, MTT, microscopy): PC3. The series is classed as cell-based, human. Particulars: for IC50: Homo sapiens. As for the experimental part: as §1, §2
More specifically, cellular spheres formed in semi-solid and drug effect on cellular spheres were examined using phase-contrast light microscopy. 3D structures of cells were analyzed using 4× magnification, 10× magnification, and 20× magnification.

For series [10], the system named is H460 (non-small-cell lung carcinoma). Put plainly: IC50 in human cancer cell lines (inhibiting HDAC): H460.
The subject of series [11] is androgen-independent PC3 prostate cancer cells. The series can be described thus: Cell cycle analysis. The class given is cell-based, human. Conditions: for cell cycle arrest and apoptosis: androgen-independent PC3 prostate cancer cells. As for the experimental part:
More specifically, cells in the logarithmic phase were initially seeded at a density of 1×10^6 in 100 mm^2 dishes. After treatment with various concentrations of test compounds for the indicated times, cells were trypsinized, washed with PBS, and fixed in 70% ethanol. The fixed cells were then treated with 50 μg/mL RNase and stained with 50 μg/mL propidium iodide at room temperature for 20 minutes. The DNA content was determined by BD FACS Calibur flow cytometry system (BD Biosciences). For each analysis, 10,000 cells were counted, and the percentage of cells in each phase was calculated using ModFit LT software (Verity Software House, Inc.).

Series [12] deals with histone and α-tubulin acetylation in PC3 cells. Put plainly: Western blot: acetylation in PC3 cells. The series is classed as cell-based, human. Conditions: concentration-dependent. As for the experimental part: (§3) More specifically, cells in the logarithmic phase were initially seeded at a density of 1×10^6 in 100 mm^2 dishes. […] Briefly, cells were lysed with the cell lysis reagent CelLytic™ M (Sigma-Aldrich) containing 1 mM DTT, 1 mM PMSF and protease inhibitors for whole-cell lysate preparation. Equal amounts of lysate (on a protein basis) were then differentiated using the SDS-PAGE, blotted on PVDF membranes, conjugated with various specific primary antibodies, and then probed with appropriate secondary antibodies. The immunoreactive bands were detected using the ECL method and visualized on Kodak Bio-MAX MR film.
(§4) Proteins from cells were extracted and subjected to the western blotting analysis. β-Actin was used as an internal control. The deacetylase enzyme assay was based on a homogeneous fluorescence release assay. […] After fluorophore from the deacetylated substrates, fluorescent signal was detected.

The subject of series [13] is Du145 prostate cancer cells. The series can be described thus: Two dimensional cell growth inhibitory assay (MTT): Du145. Particulars: Homo sapiens, DU-145, 72 h, read-out: MTT IC50 ± SD.
Protocol: as §5
Series [14] has as its system HT-29 (colorectal carcinoma). Put plainly: IC50 in human cancer cell lines (inhibiting HDAC): HT-29.
The subject of series [15] is LNCaP104-S prostate cancer cells. Put plainly: Two dimensional cell growth inhibitory assay (MTT): LNCaP104-S. Conditions: Homo sapiens, 72 h, read-out: MTT IC50 ± SD.
Protocol: as §5
For series [16], the system named is KB cell line (oral carcinoma). The series can be described thus: IC50 in human cancer cell lines (inhibiting HDAC): KB.
Series [17] has as its system histone and α-tubulin acetylation in human BJAB B cell lymphoma. Put plainly: Western blot: acetylation in BJAB cells. The series is classed as cell-based. As for the experimental part: as §3, §4
On the technique in general: Immunoblotting shows a protein as a band on a membrane.

As to `O=C(/C=C/c1cccc(S(=O)(=O)n2ccc3cccnc32)c1)NO` [Compound 7, (E)-3-(3-(1H-Pyrrolo[2,3-b]pyridin-1-ylsulfonyl)phenyl)-N-hydroxyacrylamide], the IC50 worked out at 1150 ± 30 nM in series [1]; 1630 ± 410 nM in series [2] (read-out: IC50, inhibiting HDAC in human cancer cell lines); 3210 ± 150 nM in [3]; 2090 ± 110 nM in series [4]; 2450 ± 150 nM in [5]; 2990 ± 170 nM in [6] (read-out: 2D Culture). The IC50 in [8] (HONE1, read-out: IC50, inhibiting HDAC in human cancer cell lines) came to 1200 ± 310 nM; in series [9] (read-out: 3D Culture), 6380 ± 160 nM; in [10] (NCI-H460, read-out: IC50, inhibiting HDAC in human cancer cell lines), 570 ± 10 nM; in [13] it was 1220 ± 50 nM; in [14] (HT-29, read-out: IC50, inhibiting HDAC in human cancer cell lines) it was 1240 ± 400 nM; in series [15], 1980 ± 100 nM. In addition, the IC50 in series [16] (read-out: IC50, inhibiting HDAC in human cancer cell lines, oral carcinoma) stood at 760 ± 230 nM. In addition, the “inhibition of human PC3 xenograft growth” value is on record as “about 50%” in series [7] (25 mg/kg oral, day 25 after the first dosing) and “about 50%” in series [7] (50 mg/kg oral, day 25 after the first dosing). The body weight change result in series [7] (PC3 xenograft mice, 25 and 50 mg/kg oral) is given as “without causing much body weight change”. Also, the “effect on spheroid structure of PC3 tumors” value in series [9] (3D culture, phase-contrast light microscopy) was “disrupted the spheroid structure of PC3 tumors in a concentration-dependent manner”. Besides, the “cytotoxic / anti-proliferative activity in 3D versus 2D culture” value in series [9] (human prostate carcinoma cells, 2D and 3D culture) was “potent in both a 3D spheroid culture and a 2D culture”. In series [11], the “cell cycle arrest and apoptosis” value is “induced cell cycle arrest and apoptosis”. For the same molecule, in series [12], the “histone and α-tubulin acetylation” value was “induced histone and α-tubulin acetylation”.
With `COc1ccc(S(=O)(=O)N2CCc3cc(/C=C/C(=O)NO)cnc32)cc1` [Compound 5b, (E)-N-hydroxy-3-(1-(4-methoxyphenylsulfonyl)-2,3-dihydro-1H-pyrrolo[2,3-b]pyridin-5-yl)acrylamide], the “histone and α-tubulin acetylation” value is “induced histone and α-tubulin acetylation” in [17]; “induced histone and α-tubulin acetylation” in series [12]. Also, the IC50 was 100 ± 40 nM in series [1]; 170 ± 40 nM in series [2] (read-out: IC50 ± SD against human cancer cell lines); 230 ± 30 nM in series [3]; 180 ± 70 nM in series [4]; 150 to 625 nM in series [5]; 170 ± 40 nM in series [6] (72 h, read-out: MTT IC50 ± SD). Further, the IC50 in series [6] (read-out: IC50 value 2D Culture) is 170 ± 40 nM; in series [8] (HONE1, read-out: IC50 ± SD against human cancer cell lines), 447 ± 45.2 nM; in series [9] (3D cellular sphere culture, PC3, 72 hours, read-out: MTT IC50 ± SD), 410 ± 60 nM; in [9] (Table 6, cell line not given, read-out: IC50 value 3D Culture) it was 410 ± 60 nM; in [10] (NCI-H460, read-out: IC50 ± SD against human cancer cell lines), 112 ± 9.5 nM; in [13], 90 ± 30 nM. Besides, the IC50 turned out to be 85.4 ± 9.8 nM in series [14] (HT-29, read-out: IC50 ± SD against human cancer cell lines); 150 ± 30 nM in [15]; 86.6 ± 17.1 nM in series [16] (Homo sapiens, read-out: IC50 ± SD against human cancer cell lines, KB, oral carcinoma). The “inhibition of human PC3 xenograft growth” value in [7] (50 mg/kg oral, day 29 after the first dosing) is given as “about 70%”; in series [7] (100 mg/kg oral), “completely inhibited”. For the same molecule, in [7] (PC3 xenograft, 100 mg/kg oral), the tumor regression result is “achieved tumor regression from day 8 to day 29”. The p21 up-regulation result in [11] was “induced p21 up-regulation”. In addition, the “cell cycle arrest and apoptosis” value in series [11] is “induced cell cycle arrest and apoptosis”.
